Here are results for 5 molecules from ChEMBL document CHEMBL6115048, “Uncovering α-Selectivity for Liver X Receptor Agonists for Lipotoxic Cancer Therapies” (J Med Chem, 2025).

Each structure is given as a SMILES string.

Test [1] relates to Hepatocellular carcinoma organoid. As to the kind of experiment: Antiproliferative activity against C57BL/6 mouse Hepatocellular carcinoma organoids harboring myristoylated Akt1 and overexpressing Myc assessed as reduction in cell viability measured after 5 days in presence of sorafenib by Celltiter-glo assay. Conditions: Neoplasm, dose 1-5 µM, time 5.0 day. It is filed as functional, tissue-based. (Cellular ATP, detected with luciferase, serves as a proxy for viable cell number.)

Test [2] concerns Hep 3B2. Put plainly: Antiproliferative activity against human Hep3B cells assessed as reduction in cell viability measured after 5 days in presence of sorafenib by Celltiter-glo assay. It is filed as functional, cell-based. The note with it: for EC50: 120 h.
The target of test [3] is T1, Oxysterols receptor LXR-alpha (Homo sapiens, UniProt Q13133).
T1 sequence (Q13133 whole entry): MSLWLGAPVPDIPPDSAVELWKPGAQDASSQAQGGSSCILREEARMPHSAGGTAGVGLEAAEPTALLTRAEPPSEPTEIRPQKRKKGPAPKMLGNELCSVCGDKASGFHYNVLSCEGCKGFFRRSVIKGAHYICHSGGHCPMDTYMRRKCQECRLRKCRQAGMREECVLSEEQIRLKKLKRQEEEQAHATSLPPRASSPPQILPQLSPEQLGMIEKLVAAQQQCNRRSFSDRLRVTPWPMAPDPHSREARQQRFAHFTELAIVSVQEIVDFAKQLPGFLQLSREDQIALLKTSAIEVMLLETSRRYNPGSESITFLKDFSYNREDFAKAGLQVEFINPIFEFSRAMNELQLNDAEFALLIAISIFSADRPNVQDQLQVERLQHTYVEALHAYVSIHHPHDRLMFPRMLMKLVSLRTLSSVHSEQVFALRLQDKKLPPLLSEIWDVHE
As to the kind of experiment: Agonist activity at GST-tagged LXRalpha LBD (unknown origin) measured after 6 hrs in presence of fluorescein-TRAP220/DRIP-2 by TR-FRET assay. A general note: In TR-FRET formats the signal depends on donor and acceptor labels being close together.

The target in test [4] is T2, Oxysterols receptor LXR-beta (Homo sapiens, UniProt P55055).
T2 sequence (P55055 whole entry): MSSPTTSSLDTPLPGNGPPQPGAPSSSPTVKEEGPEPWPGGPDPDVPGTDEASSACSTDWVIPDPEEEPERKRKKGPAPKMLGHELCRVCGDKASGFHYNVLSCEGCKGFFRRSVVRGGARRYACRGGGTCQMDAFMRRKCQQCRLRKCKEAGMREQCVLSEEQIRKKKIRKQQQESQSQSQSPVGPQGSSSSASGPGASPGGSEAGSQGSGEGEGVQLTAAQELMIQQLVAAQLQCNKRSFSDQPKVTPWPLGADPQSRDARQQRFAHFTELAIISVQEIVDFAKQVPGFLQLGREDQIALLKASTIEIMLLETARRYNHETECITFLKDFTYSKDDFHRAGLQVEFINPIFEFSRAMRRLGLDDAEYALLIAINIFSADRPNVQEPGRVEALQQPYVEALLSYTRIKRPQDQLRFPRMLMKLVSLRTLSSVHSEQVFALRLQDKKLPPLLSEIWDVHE
As to the kind of experiment: Agonist activity at GST-tagged LXRbeta LBD (unknown origin) measured after 6 hrs in presence of fluorescein-TRAP220/DRIP-2 by TR-FRET assay.

Broadly, the EC50 is the concentration that produces a half-maximal response. Take `O=C(O)Cc1cccc(OCCCN(Cc2cccc(C(F)(F)F)c2Cl)CC(c2ccccc2)c2ccccc2)c1`: the Activity entry in test [1] and in test [2] (time 5.0 day) was “Dose-dependent-effect” each time. Further, in test [2], the EC50 stood at 1.9 µM.

As for `CN1CCN(c2ccc(NC3=C(c4ccccc4)C(=O)N(Cc4ccccc4)C3=O)cc2)CC1`, the concentration for a half-maximal effect (EC50) result in test [3] and in test [4] was “Not_active” in each case.

On to `CC(C)(C)OC(=O)NC1CCN(c2ccc(NC3=C(c4ccccc4)C(=O)N(Cc4ccccc4)C3=O)cc2)CC1`, for which the EC50 result in test [3] and in test [4] was “Not_active” in each case. Regarding `O=S(=O)(c1ccccc1)N(CC(F)(F)F)c1ccc(C(O)(C(F)(F)F)C(F)(F)F)cc1`, the Activity entry in test [1] was “Dose-dependent-effect”.

Take `COc1ccc(NC2=C(c3ccccc3)C(=O)N(Cc3ccccc3)C2=O)cc1`: the EC50 in test [2] came out at 3.8 µM.
